Molecules are shown by their SMILES.

In this test the test system is patients with acute moderate and severe TBI. The experiment in a line: NOSTRA III phase III trial, clinical outcome (eGOS, therapy intensity level) in TBI patients. The test is classed as in vivo, human. The conditions noted are these: for proportion of low TIL levels (3-10 points): patients of 18-39 years; for eGOS median at 6 months: placebo 5. On the procedure:
Based on the results of the earlier phase II study, the NOSTRA III (NO Synthase in TRAumatic Brain Injury) phase III trial was designed to detect clinically relevant differences in clinical outcome (Extended Glasgow Outcome Score at 6 months after injury) as primary endpoint. In addition, the extracellular intracerebral glutamate levels and lactate levels of these TBI patients were also determined in an exploratory approach to monitor the metabolic state of the patients.
Trials. 2020. A total of 224 evaluable patients with moderate and severe TBI were enrolled in 32 centres in Austria, France, Germany, Spain, and United Kingdom. The trial started on 24 Aug. 2016 with last-patient last-visit on 17 Jun. 2020.
Patients between 18 and 60 years of age with Glasgow Coma Score ≥3 requiring intracranial pressure (ICP) monitoring were enrolled. Other inclusion criteria were TBI within the last 18 hours but at least 6 hours after the injury, which were expected to survive more than 24 hours after admission.
The eGOS was determined by a face to face meeting by trained assessors.
The null-hypothesis of no shift across the 8 ordered categories of eGOS for the two treatment groups was tested after six months based on a proportional odds model stratified by age (18-39 years and 40-60 years). […] Treatment and age (18-39 years and 40-60 years) were included in the model. The proportional odds assumption was tested using a Chi-Square Score Test.
The main objective of the post hoc analyses was to estimate the effect size of VAS203 compared with placebo for the primary endpoint eGOS-I (eGOS-Interview) in the subgroups time to infusion ≤12 hours and >12 hours. Supportive analyses were conducted by age group (<40 years, ≥40 years) because age group was used as a stratification factor in the study. Comparability between treatment groups regarding demographics as well as severity and location of disease was investigated using similar methods as in the main CSR.
The proportions of patients per eGOS-I level at 3 months and at 6 months were calculated. For the change in eGOS-I over time, the proportion of patients with changes from 3 to 6 months were calculated by eGOS-I level, and in addition categorised as decreased (i.e. any decrease in eGOS-I level from 3 to 6 months), unchanged (i.e. no change in eGOS-I level from 3 to 6 months), and increased (i.e. any increase in eGOS-I level from 3 to 6 months).
Ordinal logistic regression was used for the analysis of eGOS-I at 3 months and at 6 months, including treatment group and age group (<40 years, ≥40 years) as factors in the model. Estimated odds ratios for the comparison of the VAS203 and placebo groups of >1 mean that eGOS-I was higher in the VAS203 group than in the placebo group across the 8 levels, whereas odds ratios of <1 mean that eGOS-I was lower in the VAS203 group than in the placebo group. Odds ratios together with their 95% CIs were used to estimate and assess the size of the treatment effect of VAS203 compared to placebo. Proportional […] were assumed as valid for all these analyses because ordinal logistic regression analysis is known to be robust against deviations from this assumption; also, the power of assumption checking would be low for small subgroups.
Based on the time-dependent activation of pathologic cascades during the early phase after TBI and the benefits observed with an infusion of VAS203 during the initial 12 hours after TBI in the Phase IIa trial [Stover], a post-hoc-analysis was performed to determine whether patients in whom VAS203 was infused ≤12 hours after TBI, show better clinical improvement compared to patients in whom infusion was started >12 hours after TBI.

Regarding `C[C@H](O)[C@H](O)C1CNc2nc(N)nc(N)c2N1` (mixture of isomers) [Ronopterin, 4-Amino-(6R,S)-5,6,7,8-tetrahydro-L-biopterin], the “proportion of patients with Good Recovery” value was 30% (18-39 years, late infusion >12 hours, placebo 38%); 20% (40-60 years, late infusion >12 hours, placebo 19%); 45% (patients aged 18-39 years, early infusion ≤12 hours, placebo 32%); 27% (patients aged 40-60 years, early infusion, placebo 8%). Besides, the “proportion of low TIL levels (3-10 points)” value runs as follows: (second week after TBI, placebo 64%, p=0.0002) 81%; (placebo 62%, p=0.01) 71%. The “NNT for Good Recovery” value (time to infusion <12 hours) came to 8. The “increase of proportion of patients with a Good Recovery at 6 months compared to the Placebo group” value (time to infusion <12 hours) is on record as 61%. For the same compound, the “proportion of patients with Good Recovery (eGOS 7 and 8)” value (time to infusion <12 hours, placebo 23%, ns) is given as 37%. For the same compound, the “eGOS median at 6 months” value reads like this: (time to infusion >12 hours) 5; (time to infusion ≤12 hours, not significant) 6. In addition, the “proportion of patients with Good Recovery at 6 months” value (time to infusion >12 hours, placebo 28%) is listed as 25%. Besides, for the setting “total dose 17 mg/kg infused for 48 hours, ordinal logistic regression”, the “overall eGOS-I rating at 6 months vs placebo (primary efficacy endpoint)” value is given as “No difference”.

Source of the values: patent US12465609B2, “Methods of treating patients suffering from a disease condition or disorder that is associated with an increased glutamate level” (veriNOS operations GmbH, priority 2022, dated 2025).
